What was measured:
[1] = system: MC38 and CT26; assay: Alamar Blue cell viability assay, mouse CRC cell lines; format: cell-based; settings: 72 hours
Procedure: FIGS. 5A-5F show AP-4-139B is efficacious against CRC in an immunocompetent model, and causes immune cell recruitment. FIGS. 5A-5B: Mouse CRC cell lines, MC38 (FIG. 5A) and CT26 (FIG. 5B), were plated at a density of 1,000 cells per well in 96-well plates. The next day, cells were treated with the indicated inhibitors for 72 hours. Cells were then subjected to the Alamar Blue cell viability assays. Shown are representative IC50 values of an average of six technical replicates and two biological replicates. FIG. 5C: Mouse CRC cell lines MC38 and CT26 were treated with 10 μM AP-4-139B for 24 or 48 hours and immunoblotted for HSP70, p53, AKT, Cleaved Lamin A (CLA), Cleaved Caspase 3, MRPS14, and GAPDH (loading control). The doublet detected for HSP70 is seen in other murine cell lines, and may represent a degradation product or post-translational modification. FIG. 5D: 1×10^6 MC38 cells were injected subcutaneously into the right flank of 6-8 week old male C57Bl/6 mice. Once tumors reached an approximate volume of 50 mm^3, mice were separated randomly into two groups: vehicle vs. AP-4-139B. Mice were treated with 10 mg/kg AP-4-139B every 48 hours. All mice were euthanized 20 days after the start of treatment. Tumor volumes were recorded using digital calipers and using the formula v=length×width^2×0.52. *** p<0.001. n=15 mice per group.

[2] = system: MC38 tumors; assay: Flow cytometric immunophenotyping of MC38 tumors; format: in vivo, mouse; settings: 10 mg/kg every 48 hours, 20 days
Procedure: FIG. 6A: 1×10^6 MC38 cells were injected subcutaneously into the right flank of 6-8-week-old male C57Bl/6 mice. Once tumors reached an approximate volume of 100 mm^3, mice were treated with AP-4-139B (10 mg/kg) every 48 hours. 20 days after the start of treatment, tumors were excised, weighed, minced and digested. Tumor-infiltrating and splenic conventional CD4 (cCD4) (Live CD45^+ DUMP^− CD3^+CD4^+Foxp3^−), Tregs (Live CD45^+ DUMP^− CD3^+CD4^+Foxp3^+), CD8 (Live CD45^+ DUMP^− CD3^+CD8^+) T-cells, and Dendritic Cells (Live CD45^+ DUMP^− CD3^−CD11c^+MHCII^+) numbers were assessed by flow cytometry. * p<0.05, n.s. not significant. n=8 mice per group. FIG. 6B: MC38 and HT-29 cells were treated with the indicated concentrations of AP-4-139B for either 8 or 24 hours; media was collected and subjected to WB for HMGB1. Data shown are representative of three technical replicates. FIG. 6C: MC38 and HT-29 cells were treated with the indicated concentrations of AP-4-139B for three hours and then assayed for extracellular ATP release. […]
Tumors were excised, weighed with an electronic scale, minced and digested in 5 mL HBSS containing 1 mg/ml Type 1 Collagenase from Clostridium histolyticum (Sigma-Aldrich) for 30 minutes at 37° C. […] Samples were analyzed using FACSymphony A3 (BD Biosciences) flow cytometer equipped with 5 lasers. Data were analyzed using FlowJo Version 10 and GraphPad Prism software.

[3] = system: 1205LU melanoma xenografts; assay: 1205Lu melanoma xenograft in NSG mice; format: in vivo, mouse; settings: i.p. twice per week
Procedure: 1205LU melanoma xenografts in NSG mice were established. When tumors reached 100 mm^3 in volume, mice were treated twice per week with the i.p. doses of AP-4-139B indicated.
AP-4-139B was tested as a single agent in a 1205Lu melanoma xenograph in mice. 1205LU melanoma xenografts in NSG mice were established. When tumors reached 100 mm^3 in volume, mice were treated twice per week with the i.p. doses of AP-4-139B indicated.

c1ccc(-c2cn3nc(CCCCCC[P+](c4ccccc4)(c4ccccc4)c4ccccc4)sc3n2)cc1 [AP-4-139B, Triphenyl(6-(6-phenylimidazo[2,1-b][1,3,4]thiadiazol-2-yl)hexyl)phosphonium bromide]
IC50s in murine CRC lines (in words) [1]: comparable to that of oxaliplatin
abundance of immune cell types in spleens [2]: no changes in abundance
immune cell infiltrates (CD4+ T cell, CD8+ T cell, dendritic cells, Tregs) in tumors [2]: significantly increased immune cell infiltrates
tumor growth, 1205Lu xenograft [3]: inhibit tumor growth
tumor weight, 1205Lu xenograft [3]: reduce tumor weight

Source: patent publication US12616753B2, “HSP70 inhibitors and methods of using same” (THE WISTAR INSTITUTE, priority 2020, dated 2026)
